# According to ChEMBL document CHEMBL1201862, “PubChem BioAssay data set” (2004):
#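 Compound exposure: 48 hours, 5 concentrations, 96-well plates. Here, GI50 denotes the concentration required for 50% inhibition of growth.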 Calls of active or inactive are those of the source. No stated cut-off is given here; in the data, active = GI50 up to about 1.1 µM and inactive = higher.
# How the values were obtained:
# Assay in all cases: NCI anticancer screen, dose series, 48 h
# HCC 2998 = system: HCC 2998
# TK-10 = system: TK-10
# NCI-H460 = system: NCI-H460
# HT-29 = system: HT-29
# NCI-H23 = system: NCI-H23
# Malme-3M = system: Malme-3M
# T47D = system: T47D
# IGROV-1 = system: IGROV-1
# NCI-H226 = system: NCI-H226
# M14 = system: M14
# UACC-62 = system: UACC-62
# LOX IMVI = system: LOX IMVI
# SF-295 = system: SF-295
# HOP-92 = system: HOP-92
# MDA-MB-231 = system: MDA-MB-231
# A498 = system: A498
# UO-31 = system: UO-31
# SNB-75 = system: SNB-75
# SK-OV-3 = system: SK-OV-3
# DU-145 = system: DU-145
# K562 = system: K562
# SK-MEL-28 = system: SK-MEL-28
# HCT-15 = system: HCT-15
# OVCAR-8 = system: OVCAR-8
# SK-MEL-5 = system: SK-MEL-5
# MDA-MB-435 = system: MDA-MB-435
# KM12 = system: KM12
# COLO 205 = system: COLO 205
# HCT-116 = system: HCT-116
# CAKI-1 = system: CAKI-1
# MCF7 = system: MCF7
# MOLT-4 = system: MOLT-4
# NCI/ADR-RES = system: NCI/ADR-RES
# U-251 = system: U-251
# SW-620 = system: SW-620
# RPMI-8226 = system: RPMI-8226
# RXF 393 = system: RXF 393
# MDA-N = system: MDA-N
# 786-0 = system: 786-0
# ACHN = system: ACHN
# UACC-257 = system: UACC-257
# OVCAR-4 = system: OVCAR-4
# A549 = system: A549
# PC-3 = system: PC-3
# SN12C = system: SN12C
# CCRF-CEM = system: CCRF-CEM
# EKVX = system: EKVX
# Hs-578T = system: Hs-578T
# SF-268 = system: SF-268
# SNB-19 = system: SNB-19
# SR = system: SR
# NCI-H522 = system: NCI-H522
# HOP-62 = system: HOP-62
# OVCAR-5 = system: OVCAR-5
# SK-MEL-2 = system: SK-MEL-2
# OVCAR-3 = system: OVCAR-3
# SF-539 = system: SF-539
# HL-60 = system: HL-60
structure (smiles),measurement,setting,value
OCC1NC(CO)C(O)C1O (centres undefined),GI50,HCC 2998,> 100 µM (inactive)
same,GI50,TK-10,> 100 µM (inactive)
same,GI50,NCI-H460,> 100 µM (inactive)
same,GI50,HT-29,> 100 µM (inactive)
same,GI50,NCI-H23,> 100 µM (inactive)
same,GI50,Malme-3M,> 100 µM (inactive)
same,GI50,T47D,> 100 µM (inactive)
same,GI50,IGROV-1,> 100 µM (inactive)
same,GI50,NCI-H226,> 100 µM (inactive)
same,GI50,M14,> 100 µM (inactive)
same,GI50,UACC-62,> 100 µM (inactive)
same,GI50,LOX IMVI,> 100 µM (inactive)
same,GI50,SF-295,> 100 µM (inactive)
same,GI50,HOP-92,> 100 µM (inactive)
same,GI50,MDA-MB-231,> 100 µM (inactive)
same,GI50,A498,> 100 µM (inactive)
same,GI50,UO-31,> 100 µM (inactive)
same,GI50,SNB-75,> 100 µM (inactive)
same,GI50,SK-OV-3,> 100 µM (inactive)
same,GI50,DU-145,> 100 µM (inactive)
same,GI50,K562,> 100 µM (inactive)
same,GI50,SK-MEL-28,> 100 µM (inactive)
same,GI50,HCT-15,> 100 µM
same,GI50,OVCAR-8,> 100 µM (inactive)
same,GI50,SK-MEL-5,> 100 µM (inactive)
same,GI50,MDA-MB-435,> 100 µM (inactive)
same,GI50,KM12,> 100 µM (inactive)
same,GI50,COLO 205,> 100 µM (inactive)
same,GI50,HCT-116,> 100 µM (inactive)
same,GI50,CAKI-1,> 100 µM (inactive)
same,GI50,MCF7,> 100 µM (inactive)
same,GI50,MOLT-4,> 100 µM (inactive)
same,GI50,NCI/ADR-RES,> 100 µM (inactive)
COc1ccc2c(ccc3c(C(=O)NCCCN(C)CCCNC(=O)c4cn(C)c5c4ccc4cc(OC)ccc45)cn(C)c32)c1,GI50,U-251,1.92 µM (inactive)
same,GI50,HCC 2998,1.61 µM (inactive)
same,GI50,SW-620,1.83 µM (inactive)
same,GI50,RPMI-8226,2.35 µM (inactive)
same,GI50,NCI-H460,1.47 µM (inactive)
same,GI50,NCI-H23,1.58 µM (inactive)
same,GI50,RXF 393,2.12 µM (inactive)
same,GI50,IGROV-1,1.53 µM (inactive)
same,GI50,MDA-N,1.53 µM (inactive)
same,GI50,M14,1.59 µM (inactive)
same,GI50,786-0,1.49 µM (inactive)
same,GI50,UACC-62,1.77 µM (inactive)
same,GI50,ACHN,1.66 µM (inactive)
same,GI50,LOX IMVI,2.26 µM (inactive)
same,GI50,UACC-257,1.57 µM (inactive)
same,GI50,SF-295,2.15 µM (inactive)
same,GI50,OVCAR-4,1.71 µM (inactive)
same,GI50,A498,28.6 µM (inactive)
same,GI50,UO-31,1.66 µM (inactive)
same,GI50,A549,1.43 µM (inactive)
same,GI50,DU-145,1.67 µM (inactive)
same,GI50,K562,0.403 µM (active)
same,GI50,SK-MEL-28,1.77 µM (inactive)
same,GI50,HCT-15,1.32 µM
same,GI50,PC-3,1.55 µM (inactive)
same,GI50,SN12C,1.57 µM (inactive)
same,GI50,SK-MEL-5,1.9 µM (inactive)
same,GI50,CCRF-CEM,1.07 µM (active)
same,GI50,MDA-MB-435,1.89 µM (inactive)
same,GI50,KM12,1.56 µM (inactive)
same,GI50,EKVX,1.57 µM (inactive)
same,GI50,COLO 205,2.11 µM (inactive)
same,GI50,HCT-116,1.73 µM (inactive)
same,GI50,CAKI-1,1.64 µM (inactive)
same,GI50,Hs-578T,2.33 µM (inactive)
same,GI50,MOLT-4,2.23 µM (inactive)
same,GI50,SF-268,1.78 µM (inactive)
same,GI50,SNB-19,1.79 µM (inactive)
O=C(O)CCCC#CCCCC(=O)O,GI50,U-251,> 100 µM (inactive)
same,GI50,SR,> 100 µM (inactive)
same,GI50,HCC 2998,> 100 µM (inactive)
same,GI50,TK-10,> 100 µM (inactive)
same,GI50,NCI-H522,> 100 µM (inactive)
same,GI50,NCI-H460,> 100 µM (inactive)
same,GI50,HT-29,> 100 µM (inactive)
same,GI50,NCI-H23,> 100 µM (inactive)
same,GI50,RXF 393,> 100 µM (inactive)
same,GI50,Malme-3M,> 100 µM (inactive)
same,GI50,T47D,> 100 µM (inactive)
same,GI50,IGROV-1,> 100 µM (inactive)
same,GI50,MDA-N,> 100 µM (inactive)
same,GI50,M14,> 100 µM (inactive)
same,GI50,786-0,> 100 µM (inactive)
same,GI50,UACC-62,> 100 µM (inactive)
same,GI50,ACHN,> 100 µM (inactive)
same,GI50,LOX IMVI,> 100 µM (inactive)
same,GI50,UACC-257,> 100 µM (inactive)
same,GI50,SF-295,> 100 µM (inactive)
same,GI50,HOP-62,> 100 µM (inactive)
same,GI50,HOP-92,> 100 µM (inactive)
same,GI50,OVCAR-4,> 100 µM (inactive)
same,GI50,A498,> 100 µM (inactive)
same,GI50,UO-31,> 100 µM (inactive)
same,GI50,A549,> 100 µM (inactive)
same,GI50,SNB-75,43.5 µM (inactive)
same,GI50,SK-OV-3,> 100 µM (inactive)
same,GI50,OVCAR-5,> 100 µM (inactive)
same,GI50,DU-145,> 100 µM (inactive)
same,GI50,K562,> 100 µM (inactive)
same,GI50,SK-MEL-2,> 100 µM (inactive)
same,GI50,SK-MEL-28,> 100 µM (inactive)
same,GI50,HCT-15,> 100 µM
same,GI50,PC-3,> 100 µM (inactive)
same,GI50,SN12C,> 100 µM (inactive)
same,GI50,OVCAR-8,> 100 µM (inactive)
same,GI50,SK-MEL-5,> 100 µM (inactive)
same,GI50,OVCAR-3,> 100 µM (inactive)
same,GI50,MDA-MB-435,> 100 µM (inactive)
same,GI50,KM12,> 100 µM (inactive)
same,GI50,EKVX,> 100 µM (inactive)
same,GI50,COLO 205,> 100 µM (inactive)
same,GI50,HCT-116,> 100 µM (inactive)
same,GI50,CAKI-1,> 100 µM (inactive)
same,GI50,Hs-578T,> 100 µM (inactive)
same,GI50,MCF7,> 100 µM (inactive)
same,GI50,SF-539,> 100 µM (inactive)
same,GI50,NCI/ADR-RES,> 100 µM (inactive)
same,GI50,SF-268,> 100 µM (inactive)
same,GI50,SNB-19,> 100 µM (inactive)
CC1(C)c2ccccc2C(O)C12CCC(=O)CC2 (centres undefined),GI50,U-251,> 100 µM (inactive)
same,GI50,SR,> 100 µM (inactive)
same,GI50,HCC 2998,> 100 µM (inactive)
same,GI50,TK-10,> 100 µM (inactive)
same,GI50,SW-620,> 100 µM (inactive)
same,GI50,RPMI-8226,> 100 µM (inactive)
same,GI50,HL-60,> 100 µM (inactive)
same,GI50,NCI-H522,> 100 µM (inactive)
same,GI50,NCI-H460,> 100 µM (inactive)
same,GI50,HT-29,> 100 µM (inactive)
same,GI50,NCI-H23,> 100 µM (inactive)
same,GI50,RXF 393,14.5 µM (inactive)
same,GI50,Malme-3M,> 100 µM (inactive)
same,GI50,T47D,> 100 µM (inactive)
same,GI50,IGROV-1,> 100 µM (inactive)
same,GI50,MDA-N,> 100 µM (inactive)
same,GI50,NCI-H226,> 100 µM (inactive)
same,GI50,M14,> 100 µM (inactive)
same,GI50,786-0,> 100 µM (inactive)
same,GI50,UACC-62,> 100 µM (inactive)
same,GI50,ACHN,> 100 µM (inactive)
same,GI50,LOX IMVI,> 100 µM (inactive)
same,GI50,UACC-257,> 100 µM (inactive)
same,GI50,SF-295,> 100 µM (inactive)
same,GI50,HOP-62,> 100 µM (inactive)
same,GI50,HOP-92,> 100 µM (inactive)
same,GI50,OVCAR-4,> 100 µM (inactive)
same,GI50,MDA-MB-231,> 100 µM (inactive)
same,GI50,A498,> 100 µM (inactive)
same,GI50,UO-31,> 100 µM (inactive)
same,GI50,A549,34 µM (inactive)
same,GI50,SK-OV-3,> 100 µM (inactive)
same,GI50,OVCAR-5,> 100 µM (inactive)
same,GI50,DU-145,> 100 µM (inactive)
same,GI50,K562,> 100 µM (inactive)
same,GI50,SK-MEL-2,> 100 µM (inactive)
same,GI50,SK-MEL-28,> 100 µM (inactive)
same,GI50,HCT-15,> 100 µM
same,GI50,PC-3,> 100 µM (inactive)
same,GI50,SN12C,> 100 µM (inactive)
same,GI50,SK-MEL-5,> 100 µM (inactive)
same,GI50,OVCAR-3,> 100 µM (inactive)
same,GI50,MDA-MB-435,> 100 µM (inactive)
same,GI50,KM12,> 100 µM (inactive)
same,GI50,EKVX,> 100 µM (inactive)
same,GI50,COLO 205,> 100 µM (inactive)
same,GI50,HCT-116,9.2 µM (inactive)
same,GI50,Hs-578T,> 100 µM (inactive)
same,GI50,SF-539,> 100 µM (inactive)
same,GI50,NCI/ADR-RES,> 100 µM (inactive)
same,GI50,SF-268,> 100 µM (inactive)
same,GI50,SNB-19,> 100 µM (inactive)
